From patent US20130236568A1, “PHOSPHAPLATINS HAVING ANTI-ANGIOGENIC, ANTI-METASTATIC, AND PRO-APOPTOTIC PROPERTIES AND USES THEREOF” (Ohio University, priority 2011, published 2013)

Legend:
Type in all cases: cell-based, human
E-cadherin = test: Immunofluorescent labeling of E-cadherin protein in A2780 cells; settings: 24 hr treatment at or below IC50 concentration
Protocol: Left panels show E-cadherin bound to its antibody labeled with FITC (green). The middle and right panels represent nuclei stained with Prolong® Gold Antifade Reagent with 4′-6-Diamidino-2-phenylindole (DAPI, a nuclear stain) and merger of the left and middle panels (see Example 5 below for details).
Cells were grown on multi-chamber slide systems (Lab-Tek™, Nunc, Denmark). These cells were treated with pyrodach-4 at or below IC50 concentrations for 24 hours. Untreated cells were used as a control while treated and untreated cells without primary antibody labeling were used as negative controls. […] The Fas and E-cadherin proteins were detected via direct labeling using anti-Fas (FITC labeled, Santa Cruz Biotechnology, Inc., Santa Cruz, Calif.) and anti-E-cadherin (FITC labeled, BD Transduction Laboratories, Franklin Lakes, N.J.) fluorescently tagged antibodies. Other proteins, p53, BAX and PUMA were detected indirectly with fluorescently labeled secondary antibodies (Texas Red-conjugated anti-mouse IgG for p53 and Fluorescein-conjugated anti-rabbit IgG for BAX and PUMA, obtained from Vector Labs, Burlingame, Calif.) at 1:1000 dilution. […] The stain was cured for 24 hours before fluorescence images were acquired. […]

BAX = test: Quantitative real-time PCR, Bax expression in HUVEC; settings: HUVEC treated with pyrodach-4
Protocol: (§1) Evaluations of selected gene expressions in Human Umbilical Vein Endothelial Cells (HUVEC) and Human Ovarian Cancer Cells by quantitative reverse transcriptase polymerase chain reaction (PCR)
Quantitative real-time PCR experiments were performed to estimate the expression of a selection of targeted genes. HUVEC cells (Lonza Walkersville, Frederick, Md.) were cultured on 0.1% gelatin-coated petri dishes by following standard protocols recommended by the vendor in a humidified incubator by maintaining 5% CO2 at 37° C. […]
(§2) Both treated and untreated cancer cells were maintained in RPMI 1640 medium with 10% fetal bovine serum, 2 μmol L-glutamine, 100 units/mL penicillin-streptomycin and 0.25 units/mL insulin solution, at 37° C. with 5% CO2. […] The quantity and purity of RNA were determined by UV spectroscopy (NanoDrop 2000 Thermo Scientific, Wilmington, Del.). A minimum absorbance ratio index (ratio of the absorbance measured at 260 nm over that at 280 nm) of 1.9 was used as an acceptable purity. […] The target gene was labeled with a blue dye (FAM, absorbance: 494 nm, emission: 518 nm) while the reference gene was tagged with a green dye (VIC, absorbance: 538 nm, emission: 554 nm). […]
(§3) The threshold cycle number (Ct), the point at which the fluorescence of the qPCR reaction just exceeds the threshold fluorescence of the detection system, was determined. […]

Caspase 9 = test: Expression of key genes with and without p53 inhibitor (Table 3): Caspase 9; settings: positive = manifold increase, negative = decrease vs untreated cells
Protocol: (§4) Quantitative real-time PCR experiments were performed to estimate the expression of a selection of targeted genes. HUVEC cells (Lonza Walkersville, Frederick, Md.) were cultured on 0.1% gelatin-coated petri dishes by following standard protocols recommended by the vendor in a humidified incubator by maintaining 5% CO2 at 37° C. Human epithelial ovarian cancer cells (A2780) and cisplatin-resistant cells (A2780/C30) were cultured in RPMI 1640 with or without cisplatin (7 μM) and pyrodach-4 (180 μM) for 0, 3, 12 and 24 hours. […] HUVECs were treated with or without cisplatin (7 μM) or pyrodach-4 (90 or 180 μM) for various durations ranging from 1 hr. to 6 hrs.
as §2, with “CO2. RNA was isolated from both the treated and untreated cells.” for “CO2.”

VEGFR2 gene = test: Quantitative real-time PCR, VEGFR2 gene expression in A2780 cells
Protocol: as §1, §4
Both treated and untreated cancer cells were maintained in RPMI 1640 medium with 10% fetal bovine serum, 2 μmol L-glutamine, 100 units/mL penicillin-streptomycin and 0.25 units/mL insulin solution, at 37° C. with 5% CO2. RNA was isolated from both the treated and untreated cells. […] The quantity and purity of RNA were determined by UV spectroscopy (NanoDrop 2000 Thermo Scientific, Wilmington, Del.). A minimum absorbance ratio index (ratio of the absorbance measured at 260 nm over that at 280 nm) of 1.9 was used as an acceptable purity. […] The target gene was labeled with a blue dye (FAM, absorbance: 494 nm, emission: 518 nm) while the reference gene was tagged with a green dye (VIC, absorbance: 538 nm, emission: 554 nm). The cDNA concentrations were selected such that the threshold cycle (Ct) values for the target genes were between 17 and 32, most sensitive for the fluorescence detection by ABI StepOnePlus™ instrument used for the measurements.
as §3

## trans-(±)-1,2-cyclohexanediamine-trans-dihydroxo(pyrophosphato) platinum(IV) [Pyrodach-4]
E-cadherin
  Diffusivity of E-cadherin (immunofluorescence): reduces the diffusivity
  Expression of E-cadherin protein (immunofluorescence): increases the expression
BAX
  Over-expression of Bax: 2-3 fold
Caspase 9; Pyrodach-4 + PFT-α
  Expression of Caspase 9: 1.0
Caspase 9; Pyrodach-4 treatment only
  Expression of Caspase 9: 2.0
VEGFR2 gene; A2780 (cisplatin-sensitive), positive = manifold increase, negative = relative decrease vs untreated cells, cisplatin 7 μM, pyrodach-4 180 μM
  Normalized expression of VEGFR2 gene: −2.0
VEGFR2 gene; cisplatin-sensitive human ovarian cancer cells
  Suppression of VEGFR-2 gene expression: ≤ 50%
